# Measured values: patent publication US9926299B2, “Inhibitors of bruton's tyrosine kinase” (Centaurus BioPharma Co., Ltd., priority 2012, dated 2018)
# Tests used:
# Ramos cells = assay: BCR-induced calcium flux fluorescence-based assay in Ramos cells; conditions: Ramos cells stimulated with goat anti-human IgM antibody; read-out: Ramos Cell Ca Flux IC50
# Protocol: Calcium flux fluorescence-based assays were performed using Fluo-4 Direct™ Calcium Assay Kits (purchased from Invitrogen) in a FlexStation III (purchased from Molecular Devices) according to manufacturer instructions. In brief, actively growing Romas cells in RPM1-1640 medium (purchased from Invitrogen) supplemented with 10% FBS (purchased from Hyclone) were washed and re-plated in low serum medium at approximately 1×10^5 cells per 45 μL per well in a 96-well plate (purchased from Corning), then added 45 μL of dye (purchased from Invitrogen) and incubated at 37 degree for 1 hour. Compounds to be assayed were dissolved and 3-fold serially diluted in DMSO and then diluted by 100 times in low serum medium. Then 10 μL of the diluted mixture were added to the above 96-well plate (final DMSO concentration was 0.1%) and incubated at 37 degree in 5% CO2 incubator for 0.5 hour. The compound-treated cells were stimulated with a goat anti-human IgM antibody (10 μg/ml; purchased from SouthernBiotech) and read in the FlexStation III using a λEx=494 nM and […] for 90 seconds. The relative fluorescence unit (RFU) and the IC50 were recorded and analyzed using a GraphPad Prism 5 (GraphPad Software).
# BTK kinase = BTK kinase (Homo sapiens (Human), UniProt Q06187); assay: Btk kinase enzymatic assay (HTRF); assay type: biochemical; conditions: ATP at Km
# BTK kinase, sequence (Q06187 whole entry): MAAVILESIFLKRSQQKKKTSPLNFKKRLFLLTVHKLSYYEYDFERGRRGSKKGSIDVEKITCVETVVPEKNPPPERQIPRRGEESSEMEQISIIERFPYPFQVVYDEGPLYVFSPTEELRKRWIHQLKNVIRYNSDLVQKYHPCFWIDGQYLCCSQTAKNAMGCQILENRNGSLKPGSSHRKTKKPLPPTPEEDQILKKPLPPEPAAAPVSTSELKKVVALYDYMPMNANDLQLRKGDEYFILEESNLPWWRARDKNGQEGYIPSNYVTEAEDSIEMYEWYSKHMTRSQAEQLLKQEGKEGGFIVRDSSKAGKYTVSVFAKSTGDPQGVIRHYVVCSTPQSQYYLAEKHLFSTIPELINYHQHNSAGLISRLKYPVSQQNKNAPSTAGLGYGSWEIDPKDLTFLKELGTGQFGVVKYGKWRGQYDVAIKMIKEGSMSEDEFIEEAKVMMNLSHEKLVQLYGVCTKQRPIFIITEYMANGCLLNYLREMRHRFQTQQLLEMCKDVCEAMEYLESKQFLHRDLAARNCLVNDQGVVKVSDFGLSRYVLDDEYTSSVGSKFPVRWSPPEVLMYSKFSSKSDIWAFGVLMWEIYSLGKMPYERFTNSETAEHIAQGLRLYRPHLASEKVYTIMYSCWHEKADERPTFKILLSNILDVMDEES
# Protocol: Btk kinase activity was determined using a Homogeneous Time-Resolved Fluorescence (HTRF) methodology (Cisbio). […] The mixture was centrifuged and incubated for 5 min. […] For each compound, enzyme activity was measured at various concentrations of compound, and IC50s were obtained by GraFit Software 6.0 (Erithacus Software).
IC50 (Ramos cells) [nM],IC50 (BTK kinase) [nM],Compound
< 100,–,"C=CC(=O)N1CCC[C@@H](n2nc(-c3ccc(Oc4ccccc4)cc3)c(C(N)=O)c2N)C1 [Example 18, (R)-1-(1-acryloylpiperidin-3-yl)-5-amino-3-(4-phenoxyphenyl)-1H-pyrazole-4-carboxamide]"
< 100,< 100,"C=CC(=O)N1CCCC(n2nc(-c3ccc(Oc4ccccc4)cc3)c(C(N)=O)c2NCCN2CCOCC2)C1 (stereo not drawn) [Example 13, 1-(1-acryloylpiperidin-3-yl)-5-(2-morpholinoethylamino)-3-(4-phenoxy-phenyl)-1H-pyrazole-4-carboxamide]"
< 100,–,"C=CC(=O)N1CCCC(n2nc(-c3ccc(Oc4ccccc4)cc3)c(C(N)=O)c2N)C1 (stereo not drawn) [Example 22, 1-(1-acryloylpiperidin-3-yl)-5-amino-3-(4-phenoxyphenyl)-1H-pyrazole-4-carboxamide]"
< 100,< 100,"C=CC(=O)N1CC[C@@H](n2nc(-c3ccc(Oc4cccc(C(F)(F)F)c4)cc3)c(C(N)=O)c2N)C1 [Example 44, (R)-1-(1-acryloylpyrrolidin-3-yl)-5-amino-3-(4-(3-(trifluoromethyl)phenoxy)phenyl)-1H-pyrazole-4-carboxamide]"
< 100,< 100,"C=CC(=O)N1CCCC(n2nc(-c3ccc(Oc4ccccc4)cc3)c(C(N)=O)c2NC)C1 (stereo not drawn) [Example 1, 1-(1-acryloylpiperidin-3-yl)-5-(methylamino)-3-(4-phenoxyphenyl)-1H-pyrazole-4-carboxamide]"
< 100,< 100,"C=CC(=O)N1CC[C@@H](n2nc(-c3ccc(Oc4cc([N+](=O)[O-])ccc4C)cc3)c(C(N)=O)c2N)C1 [Example 47, (R)-1-(1-acryloylpyrrolidin-3-yl)-5-amino-3-(4-(2-methyl-5-nitrophenoxy)phenyl)-1H-pyrazole-4-carboxamide]"
< 100,< 100,"C=CC(=O)N1CC[C@@H](n2nc(-c3ccc(Oc4ccccc4Cl)cc3)c(C(N)=O)c2N)C1 [Example 45, (R)-1-(1-acryloylpyrrolidin-3-yl)-5-amino-3-(4-(2-chlorophenoxyl)phenyl)-1H-pyrazole-4-carboxamide]"
< 100,< 100,"C=CC(=O)N1CC[C@@H](n2nc(-c3ccc(Oc4ccc(Cl)cc4)cc3)c(C(N)=O)c2N)C1 [Example 43, (R)-1-(1-acryloylpyrrolidin-3-yl)-5-amino-3-(4-(4-chlorophenoxyl)phenyl)-1H-pyrazole-4-carboxamide]"
< 100,< 100,"NC(=O)c1c(-c2ccc(Oc3ccccc3)cc2)nn(C2CCCN(C(=O)CCl)C2)c1N (stereo not drawn) [Example 28, 5-amino-1-(1-(2-chloroacetyl)piperidin-3-yl)-3-(4-phenoxyphenyl)-1H-pyrazole-4-carboxamide]"
< 100,< 100,"C=CS(=O)(=O)N(C)CCn1nc(-c2ccc(Oc3ccccc3)cc2)c(C(N)=O)c1N [Example 33, 5-amino-1-(2-(N-methylvinylsulfonamido)ethyl)-3-(4-phenoxyphenyl)-1H-pyrazole-4-carboxamide]"
< 100,< 100,C=CS(=O)(=O)N1CCC[C@@H](n2nc(-c3ccc(Oc4ccccc4)cc3)c(C(N)=O)c2N)C1 [27 (R-isomer)]
< 100,< 100,"C=CC(=O)N(C)CCn1nc(-c2ccc(Oc3ccccc3)cc2)c(C(N)=O)c1N [Example 30, 5-amino-1-(2-(N-methylacrylamido)ethyl)-3-(4-phenoxyphenyl)-1H-pyrazole-4-carboxamide]"
< 100,< 100,"C=CC(=O)N1CC[C@@H](n2nc(-c3ccc(Oc4ccc(OC)cc4)cc3)c(C(N)=O)c2N)C1 [Example 46, (R)-1-(1-acryloylpyrrolidin-3-yl)-5-amino-3-(4-(4-methoxyphenoxyl)phenyl)-1H-pyrazole-4-carboxamide]"
< 100,< 100,"CN(C)C/C=C/C(=O)N1CCCC(n2nc(-c3ccc(Oc4ccccc4)cc3)c(C(N)=O)c2N)C1 (stereo not drawn) [Example 29, (E)-5-amino-1-(1-(4-(dimethylamino)but-2-enoyl)piperidin-3-yl)-3-(4-phenoxyphenyl)-1H-pyrazole-4-carboxamide]"
< 100,< 100,"C=CC(=O)N1CC[C@@H](n2nc(-c3ccc(Oc4cccc(OC)c4)cc3)c(C(N)=O)c2N)C1 [Example 42, (R)-1-(1-acryloylpyrrolidin-3-yl)-5-amino-3-(4-(3-methoxyphenoxyl)phenyl)-1H-pyrazole-4-carboxamide]"
< 100,< 100,"C=CC(=O)N1CC[C@@H](n2nc(-c3ccc(Oc4cccc([N+](=O)[O-])c4)c(C)c3)c(C(N)=O)c2N)C1 [Example 49, (R)-1-(1-acryloylpyrrolidin-3-yl)-5-amino-3-(3-methyl-4-(3-nitrophenoxy)phenyl)-1H-pyrazole-4-carboxamide]"
< 100,< 100,"C=CC(=O)N1CCCC(n2nc(-c3ccc(Oc4ccccc4)cc3)c(C(N)=S)c2N)C1 (stereo not drawn) [Example 37, 1-(1-acryloylpiperidin-3-yl)-5-amino-3-(4-phenoxyphenyl)-1H-pyrazole-4-carbothioamide]"
< 100,< 100,"C=CC(=O)N1CCCC(n2nc(-c3ccc(Oc4ccccc4)cc3)c(C(N)=O)c2NCC)C1 (stereo not drawn) [Example 6, 1-(1-acryloylpiperidin-3-yl)-5-(ethylamino)-3-(4-phenoxyphenyl)-1H-pyrazole-4-carboxamide]"
< 100,< 100,"CN(CCn1nc(-c2ccc(Oc3ccccc3)cc2)c(C(N)=O)c1N)C(=O)CCl [Example 34, 5-amino-1-(2-(2-chloro-N-methylacetamido)ethyl)-3-(4-phenoxyphenyl)-1H-pyrazole-4-carboxamide]"
< 100,< 100,"C#CC(=O)N(C)CCn1nc(-c2ccc(Oc3ccccc3)cc2)c(C(N)=O)c1N [Example 32, 5-amino-1-(2-(N-methylpropiolamido)ethyl)-3-(4-phenoxyphenyl)-1H-pyrazole-4-carboxamide]"
< 100,< 100,"CN(C)C/C=C/C(=O)N(C)CCn1nc(-c2ccc(Oc3ccccc3)cc2)c(C(N)=O)c1N [Example 35, (E)-5-amino-1-(2-(4-(dimethylamino)-N-methylbut-2-enamido)ethyl)-3-(4-phenoxyphenyl)-1H-pyrazole-4-carboxamide]"
< 100,< 100,"NC(=O)c1c(-c2ccc(Oc3ccccc3)cc2)nn(C2CCCCC2)c1N [Example 20, 5-amino-1-cyclohexyl-3-(4-phenoxyphenyl)-1H-pyrazole-4-carboxamide]"
< 100,< 100,"C=CC(=O)N1CCCC(n2nc(-c3ccc(Oc4ccccc4)cc3)c(C(N)=O)c2NCCN2CCN(C)CC2)C1 (stereo not drawn) [Example 15, 1-(1-acryloylpiperidin-3-yl)-5-(2-(4-methylpiperazin-1-yl)ethylamino)-3-(4-phenoxy-phenyl)-1H-pyrazole-4-carboxamide]"
< 100,–,"C=CC(=O)N1CCC[C@H](n2nc(-c3ccc(Oc4ccccc4)cc3)c(C(N)=O)c2N)C1 [Example 23, (S)-1-(1-acryloylpiperidin-3-yl)-5-amino-3-(4-phenoxyphenyl)-1H-pyrazole-4-carboxamide]"
